Assay: xn = mol fraction of the nth substance listed
Settings: Liquid, Vibrating tube method

CCCCCCCC [octane] + CCCCCC
Settings | mass density [kg/m3]
352.91 K, 7000 kPa, x2 = 0.1654 | 656.4
352.91 K, 7000 kPa, x2 = 0.9308 | 619.06
352.91 K, 8000 kPa, x2 = 0.1654 | 657.6
352.91 K, 8000 kPa, x2 = 0.9308 | 620.53
352.91 K, 9000 kPa, x2 = 0.1654 | 658.8
352.91 K, 9000 kPa, x2 = 0.9308 | 621.96
352.91 K, 10000 kPa, x2 = 0.1654 | 659.99
352.91 K, 10000 kPa, x2 = 0.9308 | 623.39
352.91 K, 11000 kPa, x2 = 0.1654 | 661.15
352.91 K, 11000 kPa, x2 = 0.9308 | 624.78
352.91 K, 12000 kPa, x2 = 0.1654 | 662.28
352.91 K, 12000 kPa, x2 = 0.9308 | 626.15
352.91 K, 13000 kPa, x2 = 0.1654 | 663.41
352.91 K, 13000 kPa, x2 = 0.9308 | 627.49
352.91 K, 14000 kPa, x2 = 0.1654 | 664.53
352.91 K, 14000 kPa, x2 = 0.9308 | 628.8
352.91 K, 15000 kPa, x2 = 0.1654 | 665.63
352.91 K, 15000 kPa, x2 = 0.9308 | 630.08
352.91 K, 16000 kPa, x2 = 0.1654 | 666.68
352.91 K, 16000 kPa, x2 = 0.9308 | 631.35
352.91 K, 17000 kPa, x2 = 0.1654 | 667.73
352.91 K, 17000 kPa, x2 = 0.9308 | 632.57
352.91 K, 18000 kPa, x2 = 0.1654 | 668.76
352.91 K, 18000 kPa, x2 = 0.9308 | 633.78
352.91 K, 19000 kPa, x2 = 0.1654 | 669.76
352.91 K, 19000 kPa, x2 = 0.9308 | 634.96
352.91 K, 20000 kPa, x2 = 0.1654 | 670.78
352.91 K, 20000 kPa, x2 = 0.9308 | 636.11
352.91 K, 21000 kPa, x2 = 0.1654 | 671.71
352.91 K, 21000 kPa, x2 = 0.9308 | 637.22
352.91 K, 22000 kPa, x2 = 0.1654 | 672.65
352.91 K, 22000 kPa, x2 = 0.9308 | 638.32
352.91 K, 23000 kPa, x2 = 0.1654 | 673.59
352.91 K, 23000 kPa, x2 = 0.9308 | 639.39
352.91 K, 24000 kPa, x2 = 0.1654 | 674.5
352.91 K, 24000 kPa, x2 = 0.9308 | 640.43
352.91 K, 25000 kPa, x2 = 0.1654 | 675.39
352.91 K, 25000 kPa, x2 = 0.9308 | 641.44
352.92 K, 1000 kPa, x2 = 0.7995 | 618.46
352.92 K, 2000 kPa, x2 = 0.7995 | 619.98
352.92 K, 3000 kPa, x2 = 0.7995 | 621.51
352.92 K, 4000 kPa, x2 = 0.7995 | 623
352.92 K, 5000 kPa, x2 = 0.7995 | 624.48
352.92 K, 6000 kPa, x2 = 0.7995 | 625.93
352.92 K, 7000 kPa, x2 = 0.7995 | 627.37
352.92 K, 8000 kPa, x2 = 0.7995 | 628.79
352.92 K, 9000 kPa, x2 = 0.7995 | 630.18
352.92 K, 10000 kPa, x2 = 0.7995 | 631.54
352.92 K, 11000 kPa, x2 = 0.7995 | 632.86
352.92 K, 12000 kPa, x2 = 0.7995 | 634.17
352.92 K, 13000 kPa, x2 = 0.7995 | 635.46
352.92 K, 14000 kPa, x2 = 0.7995 | 636.72
352.92 K, 15000 kPa, x2 = 0.7995 | 637.96
352.92 K, 16000 kPa, x2 = 0.7995 | 639.16
352.92 K, 17000 kPa, x2 = 0.7995 | 640.35
352.92 K, 18000 kPa, x2 = 0.7995 | 641.51
352.92 K, 19000 kPa, x2 = 0.7995 | 642.64
352.92 K, 20000 kPa, x2 = 0.7995 | 643.75
352.92 K, 21000 kPa, x2 = 0.7995 | 644.82
352.92 K, 22000 kPa, x2 = 0.7995 | 645.88
352.92 K, 23000 kPa, x2 = 0.7995 | 646.92
352.92 K, 24000 kPa, x2 = 0.7995 | 647.94
352.92 K, 25000 kPa, x2 = 0.7995 | 648.91
362.76 K, 1000 kPa, x2 = 0.5749 | 622.07
362.76 K, 2000 kPa, x2 = 0.5749 | 623.63
362.76 K, 3000 kPa, x2 = 0.5749 | 625.2
362.76 K, 4000 kPa, x2 = 0.5749 | 626.68
362.76 K, 5000 kPa, x2 = 0.5749 | 628.17
362.76 K, 6000 kPa, x2 = 0.5749 | 629.67
362.76 K, 7000 kPa, x2 = 0.5749 | 631.09
362.76 K, 8000 kPa, x2 = 0.5749 | 632.53
362.76 K, 9000 kPa, x2 = 0.5749 | 633.92
362.76 K, 10000 kPa, x2 = 0.5749 | 635.27
362.76 K, 11000 kPa, x2 = 0.5749 | 636.64
362.76 K, 12000 kPa, x2 = 0.5749 | 637.96
362.76 K, 13000 kPa, x2 = 0.5749 | 639.28
362.76 K, 14000 kPa, x2 = 0.5749 | 640.55
362.76 K, 15000 kPa, x2 = 0.5749 | 641.82
362.76 K, 16000 kPa, x2 = 0.5749 | 643.03
362.76 K, 17000 kPa, x2 = 0.5749 | 644.23
362.76 K, 18000 kPa, x2 = 0.5749 | 645.42
362.76 K, 19000 kPa, x2 = 0.5749 | 646.56
362.76 K, 20000 kPa, x2 = 0.5749 | 647.68
362.76 K, 21000 kPa, x2 = 0.5749 | 648.78
362.76 K, 22000 kPa, x2 = 0.5749 | 649.86
362.76 K, 23000 kPa, x2 = 0.5749 | 650.91
362.76 K, 24000 kPa, x2 = 0.5749 | 651.95
362.76 K, 25000 kPa, x2 = 0.5749 | 652.96
362.88 K, 1000 kPa, x2 = 0.1654 | 640.2
362.88 K, 1000 kPa, x2 = 0.2199 | 637.97
362.88 K, 2000 kPa, x2 = 0.1654 | 641.61
362.88 K, 2000 kPa, x2 = 0.2199 | 639.42
362.88 K, 3000 kPa, x2 = 0.1654 | 642.98
362.88 K, 3000 kPa, x2 = 0.2199 | 640.79
